From PMC7982320 (Pharmacology Research & Perspectives, 2021)
Where two headings read alike, the source gives them in different places.

Experiments:
CYP3A4 = conditions: 48 h
human MATE1 = target: T1, human MATE1 (Homo sapiens, UniProt Q96FL8); experiment: Transporter inhibition, uptake assay; assay type: in vitro ADME
T1 sequence (Q96FL8 1-570): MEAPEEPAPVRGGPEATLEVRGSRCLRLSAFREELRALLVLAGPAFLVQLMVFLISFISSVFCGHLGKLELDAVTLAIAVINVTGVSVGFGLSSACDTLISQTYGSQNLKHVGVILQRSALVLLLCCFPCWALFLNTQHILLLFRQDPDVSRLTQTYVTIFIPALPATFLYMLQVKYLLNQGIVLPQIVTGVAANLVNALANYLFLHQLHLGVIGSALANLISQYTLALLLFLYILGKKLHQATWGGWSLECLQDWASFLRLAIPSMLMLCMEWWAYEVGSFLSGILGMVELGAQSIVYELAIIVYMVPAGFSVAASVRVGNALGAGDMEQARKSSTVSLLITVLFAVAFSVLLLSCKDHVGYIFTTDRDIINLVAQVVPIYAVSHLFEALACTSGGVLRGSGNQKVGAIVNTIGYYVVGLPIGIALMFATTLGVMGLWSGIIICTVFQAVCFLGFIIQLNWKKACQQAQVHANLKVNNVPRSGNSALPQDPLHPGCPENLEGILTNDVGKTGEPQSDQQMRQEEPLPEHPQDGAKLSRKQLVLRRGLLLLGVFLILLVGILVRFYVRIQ

human MATE2‐K = human MATE2‐K (Homo sapiens, UniProt Q86VL8); experiment: Transporter inhibition, uptake assay; assay type: in vitro ADME
Chain of human MATE2‐K (Q86VL8 1-566 isoform Q86VL8-3): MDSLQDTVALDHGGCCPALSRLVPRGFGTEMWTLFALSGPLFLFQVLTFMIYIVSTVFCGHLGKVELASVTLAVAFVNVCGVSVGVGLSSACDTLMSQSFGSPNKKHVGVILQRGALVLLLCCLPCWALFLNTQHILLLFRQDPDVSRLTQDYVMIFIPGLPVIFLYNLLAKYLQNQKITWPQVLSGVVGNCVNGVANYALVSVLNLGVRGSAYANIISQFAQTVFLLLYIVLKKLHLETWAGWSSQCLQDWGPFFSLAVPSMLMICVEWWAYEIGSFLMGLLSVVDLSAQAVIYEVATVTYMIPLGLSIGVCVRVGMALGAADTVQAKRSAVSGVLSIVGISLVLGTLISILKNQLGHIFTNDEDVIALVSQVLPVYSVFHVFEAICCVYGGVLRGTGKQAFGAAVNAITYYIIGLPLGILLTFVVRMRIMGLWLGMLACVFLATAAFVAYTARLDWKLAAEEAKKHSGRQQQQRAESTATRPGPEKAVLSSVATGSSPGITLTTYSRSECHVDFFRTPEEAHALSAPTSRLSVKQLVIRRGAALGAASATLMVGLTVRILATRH

CYP2C8 = CYP2C8 (Homo sapiens, UniProt P10632); experiment: CYP inhibition in pooled human liver microsomes, paclitaxel probe; assay type: in vitro ADME; conditions: read-out: IC50, No preincubation; CYP2C8, pooled HLMs, n = 3
Chain of CYP2C8 (P10632 whole entry): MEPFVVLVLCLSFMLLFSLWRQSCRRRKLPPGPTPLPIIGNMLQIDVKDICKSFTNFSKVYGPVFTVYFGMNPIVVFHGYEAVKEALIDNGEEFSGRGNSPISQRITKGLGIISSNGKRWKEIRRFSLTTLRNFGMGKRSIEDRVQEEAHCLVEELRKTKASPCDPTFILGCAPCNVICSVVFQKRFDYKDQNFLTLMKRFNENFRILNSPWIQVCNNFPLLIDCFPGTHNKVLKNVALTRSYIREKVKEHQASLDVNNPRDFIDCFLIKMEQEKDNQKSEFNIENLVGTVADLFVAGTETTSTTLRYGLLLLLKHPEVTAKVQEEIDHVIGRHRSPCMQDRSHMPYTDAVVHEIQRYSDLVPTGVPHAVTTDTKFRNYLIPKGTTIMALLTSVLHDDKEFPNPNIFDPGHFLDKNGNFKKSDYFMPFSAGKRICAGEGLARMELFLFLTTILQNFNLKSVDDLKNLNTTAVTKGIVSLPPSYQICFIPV

human OCT1 = human OCT1 (Homo sapiens, UniProt O15245); experiment: Transporter inhibition, uptake assay; assay type: in vitro ADME
Chain of human OCT1 (O15245 whole entry): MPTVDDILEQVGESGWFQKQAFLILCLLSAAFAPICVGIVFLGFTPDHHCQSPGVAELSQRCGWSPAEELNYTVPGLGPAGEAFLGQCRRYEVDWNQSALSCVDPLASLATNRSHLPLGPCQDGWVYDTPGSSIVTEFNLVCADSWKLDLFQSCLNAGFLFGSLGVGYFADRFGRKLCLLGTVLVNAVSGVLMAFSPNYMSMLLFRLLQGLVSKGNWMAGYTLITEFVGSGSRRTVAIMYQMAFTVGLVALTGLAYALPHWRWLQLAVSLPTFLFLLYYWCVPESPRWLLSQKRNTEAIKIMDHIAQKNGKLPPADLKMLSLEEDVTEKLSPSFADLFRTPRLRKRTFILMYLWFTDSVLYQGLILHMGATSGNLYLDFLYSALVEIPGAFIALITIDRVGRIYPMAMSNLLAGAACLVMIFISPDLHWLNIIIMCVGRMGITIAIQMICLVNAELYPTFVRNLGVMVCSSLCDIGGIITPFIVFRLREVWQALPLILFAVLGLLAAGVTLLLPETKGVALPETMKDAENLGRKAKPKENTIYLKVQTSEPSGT

human BCRP = target: T2, human BCRP (Homo sapiens, UniProt Q9UNQ0); experiment: Transporter inhibition, vesicular transport assay; assay type: in vitro ADME
T2 sequence (Q9UNQ0 1-655): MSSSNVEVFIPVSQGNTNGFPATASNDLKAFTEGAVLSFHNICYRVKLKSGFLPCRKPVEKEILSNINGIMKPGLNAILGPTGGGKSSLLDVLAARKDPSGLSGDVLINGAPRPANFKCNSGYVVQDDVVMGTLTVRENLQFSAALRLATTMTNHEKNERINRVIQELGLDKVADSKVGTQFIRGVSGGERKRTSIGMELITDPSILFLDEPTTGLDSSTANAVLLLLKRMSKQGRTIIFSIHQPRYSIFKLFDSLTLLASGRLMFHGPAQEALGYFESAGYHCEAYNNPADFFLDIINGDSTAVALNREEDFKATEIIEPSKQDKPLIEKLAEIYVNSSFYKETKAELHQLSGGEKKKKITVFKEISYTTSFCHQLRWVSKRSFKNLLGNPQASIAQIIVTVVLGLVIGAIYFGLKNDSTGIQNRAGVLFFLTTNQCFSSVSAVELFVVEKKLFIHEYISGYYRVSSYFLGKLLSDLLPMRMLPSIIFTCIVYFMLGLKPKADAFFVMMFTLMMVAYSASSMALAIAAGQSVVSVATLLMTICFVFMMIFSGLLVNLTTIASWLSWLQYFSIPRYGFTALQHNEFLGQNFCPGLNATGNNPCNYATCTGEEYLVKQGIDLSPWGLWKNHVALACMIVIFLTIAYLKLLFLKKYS

human MDR1 = human MDR1 (Homo sapiens, UniProt P08183); experiment: Transporter inhibition, vesicular transport assay; assay type: in vitro ADME
Chain of human MDR1 (P08183 whole entry): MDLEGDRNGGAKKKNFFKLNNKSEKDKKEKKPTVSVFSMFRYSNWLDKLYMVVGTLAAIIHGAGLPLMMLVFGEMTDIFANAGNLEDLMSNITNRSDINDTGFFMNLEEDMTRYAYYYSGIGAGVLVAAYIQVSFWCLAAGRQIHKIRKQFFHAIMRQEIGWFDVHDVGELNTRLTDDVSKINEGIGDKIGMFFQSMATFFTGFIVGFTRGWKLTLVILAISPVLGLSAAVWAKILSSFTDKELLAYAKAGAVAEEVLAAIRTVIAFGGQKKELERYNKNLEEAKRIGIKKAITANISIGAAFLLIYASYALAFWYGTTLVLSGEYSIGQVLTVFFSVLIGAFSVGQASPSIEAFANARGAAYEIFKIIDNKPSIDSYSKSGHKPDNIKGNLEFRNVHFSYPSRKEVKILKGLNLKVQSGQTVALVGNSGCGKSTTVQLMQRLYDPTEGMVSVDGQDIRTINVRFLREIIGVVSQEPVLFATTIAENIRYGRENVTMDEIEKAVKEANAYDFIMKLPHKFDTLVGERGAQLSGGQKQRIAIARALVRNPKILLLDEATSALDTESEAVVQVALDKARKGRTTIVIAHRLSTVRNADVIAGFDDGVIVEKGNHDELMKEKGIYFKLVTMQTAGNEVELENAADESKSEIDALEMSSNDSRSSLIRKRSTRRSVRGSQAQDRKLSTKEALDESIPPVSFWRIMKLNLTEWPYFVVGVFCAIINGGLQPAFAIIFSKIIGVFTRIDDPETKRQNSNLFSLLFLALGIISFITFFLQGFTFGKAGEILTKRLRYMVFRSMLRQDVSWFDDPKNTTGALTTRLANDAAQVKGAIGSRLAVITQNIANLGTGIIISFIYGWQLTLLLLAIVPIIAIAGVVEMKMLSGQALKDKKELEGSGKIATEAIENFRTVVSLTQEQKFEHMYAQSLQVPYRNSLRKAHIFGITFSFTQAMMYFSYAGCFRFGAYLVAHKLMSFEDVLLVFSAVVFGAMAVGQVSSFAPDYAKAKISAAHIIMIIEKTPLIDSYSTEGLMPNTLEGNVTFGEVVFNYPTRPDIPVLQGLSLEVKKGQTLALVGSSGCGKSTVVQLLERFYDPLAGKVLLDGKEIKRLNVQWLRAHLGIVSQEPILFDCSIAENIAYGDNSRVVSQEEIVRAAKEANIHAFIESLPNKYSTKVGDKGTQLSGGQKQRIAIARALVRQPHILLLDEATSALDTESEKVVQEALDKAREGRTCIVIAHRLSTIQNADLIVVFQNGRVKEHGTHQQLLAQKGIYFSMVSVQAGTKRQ

## CC1=N[C@]2(C(=O)CO)[C@@H](C[C@H]3[C@@H]4C[C@@H](O)C5=CC(=O)C=C[C@]5(C)[C@H]4[C@@H](O)C[C@@]32C)O1 [6β‐OH‐21‐desDFZ, 6β‐Hydroxy‐21‐desacetyl deflazacort]
CYP3A4; donor one, 0.002 µM
  CYP3A4 enzyme activity fold induction: 0.600 fold
  CYP3A4 mRNA fold induction: 0.450 fold
CYP3A4; donor one, 0.01 µM
  CYP3A4 enzyme activity fold induction: 0.595 fold
  CYP3A4 mRNA fold induction: 0.583 fold
CYP3A4; donor one, 0.05 µM
  CYP3A4 enzyme activity fold induction: 0.604 fold
  CYP3A4 mRNA fold induction: 0.507 fold
CYP3A4; donor one, 0.25 µM
  CYP3A4 enzyme activity fold induction: 0.685 fold
  CYP3A4 mRNA fold induction: 0.681 fold
CYP3A4; donor one, 5 µM
  CYP3A4 enzyme activity fold induction: 0.451 fold
  CYP3A4 mRNA fold induction: 0.647 fold
CYP3A4; donor one, 10 µM
  CYP3A4 enzyme activity fold induction: 0.446 fold
  CYP3A4 mRNA fold induction: 0.890 fold
CYP3A4; donor one, 20 µM
  CYP3A4 enzyme activity fold induction: 0.561 fold
  CYP3A4 mRNA fold induction: 1.74 fold
CYP3A4; donor three, 0.002 µM
  CYP3A4 enzyme activity fold induction: 0.626 fold
  CYP3A4 mRNA fold induction: 0.562 fold
CYP3A4; donor three, 0.01 µM
  CYP3A4 enzyme activity fold induction: 0.543 fold
  CYP3A4 mRNA fold induction: 0.484 fold
CYP3A4; donor three, 0.05 µM
  CYP3A4 enzyme activity fold induction: 0.545 fold
  CYP3A4 mRNA fold induction: 0.450 fold
CYP3A4; donor three, 0.25 µM
  CYP3A4 enzyme activity fold induction: 0.668 fold
  CYP3A4 mRNA fold induction: 0.684 fold
CYP3A4; donor three, 5 µM
  CYP3A4 enzyme activity fold induction: 0.542 fold
  CYP3A4 mRNA fold induction: 0.615 fold
CYP3A4; donor three, 10 µM
  CYP3A4 enzyme activity fold induction: 0.563 fold
  CYP3A4 mRNA fold induction: 0.764 fold
CYP3A4; donor three, 20 µM
  CYP3A4 enzyme activity fold induction: 0.637 fold
  CYP3A4 mRNA fold induction: 1.33 fold
CYP3A4; donor two, 0.002 µM
  CYP3A4 enzyme activity fold induction: 0.601 fold
  CYP3A4 mRNA fold induction: 0.739 fold
CYP3A4; donor two, 0.01 µM
  CYP3A4 enzyme activity fold induction: 0.635 fold
  CYP3A4 mRNA fold induction: 0.714 fold
CYP3A4; donor two, 0.05 µM
  CYP3A4 enzyme activity fold induction: 0.657 fold
  CYP3A4 mRNA fold induction: 0.739 fold
CYP3A4; donor two, 0.25 µM
  CYP3A4 enzyme activity fold induction: 0.769 fold
  CYP3A4 mRNA fold induction: 0.817 fold
CYP3A4; donor two, 5 µM
  CYP3A4 enzyme activity fold induction: 0.690 fold
  CYP3A4 mRNA fold induction: 0.856 fold
CYP3A4; donor two, 10 µM
  CYP3A4 enzyme activity fold induction: 0.637 fold
  CYP3A4 mRNA fold induction: 1.02 fold
CYP3A4; donor two, 20 µM
  CYP3A4 enzyme activity fold induction: 0.856 fold
  CYP3A4 mRNA fold induction: 1.95 fold
Human MATE1; MATE1, up to 50 µM
  inhibitory interaction with transporter: no inhibitory interaction
Human MATE1; MATE1 UPT, n = 3
  Maximum inhibition at 50 µM: 26 % of control
Human MATE2‐K; MATE2‐K UPT, n = 3
  Maximum inhibition at 50 µM: 26 % of control
Human MATE2‐K; MATE2‐K, up to 50 µM
  inhibitory interaction with transporter: no inhibitory interaction
CYP2C8
  IC50: > 50 µM
Human OCT1; OCT1, up to 50 µM
  inhibitory interaction with transporter: no inhibitory interaction
Human OCT1; OCT1 UPT, n = 3
  Maximum inhibition at 50 µM: 23 % of control
Human BCRP; BCRP VT, n = 3
  Maximum inhibition at 50 µM: <20 % of control
Human BCRP; BCRP, up to 50 µM
  inhibitory interaction with transporter: no inhibitory interaction
Human MDR1; MDR1, Cmax 0.34 µM, assumed 100% free
  estimated plasma Cmax/IC50 ratio: 0.017
Human MDR1; MDR1 VT, n = 3
  Maximum inhibition at 50 µM: 78 % of control
